Assay results from PubChem BioAssay AID1963830 (Molecular Pharmacology Branch, DTP, NCI, 2024).
Values joined by “and” are separate entries in the source; they are usually repeats but may differ in a detail not shown here. Equal entries are not always repeated.

System: 922993-354-T-J3-PDC complex spheroid viability
Experiment: Anticancer human tumor 922993-354-T-J3-PDC patient-derived endometrial carcinoma cell line growth inhibition [POLQ]
Conditions: for viability, T/C: stronger effect = lower value
Description: Multicellular complex tumor spheroid response to Polymerase (POL) inhibitors (novobiocin, ART-558, RP6685) in combination with a variety of drugs and investigational agents in selected tumor cell lines
The POL inhibitors (novobiocin, ART-558, and RP6685) were evaluated both individually and in combination with standard of care and investigational anticancer small molecules within a complex spheroid model of solid tumors. . Complex spheroids include a stromal component modeled by human endothelial cells (HUVEC) and fibroblasts modeled by human mesenchymal stem cells (MSCs). The concentration ranges selected for each drug and investigational agent were based upon clinically achievable concentrations if the clinical Cmax of the agent was known.
Compounds. The drugs and investigational agents: novobiocin (NSC847541), ART-558 (NSC835418), RP-6685 (NSC848927), peposertib (NSC802822), ceralasertib (NSC780249), elimusertib (NSC800525), camonsertib (NSC841442), AZD-1390 (NSC803789), olaparib (NSC753686), talazoparib (NSC767125), rucaparib (NSC756644), sotorasib (NSC818433), MRTX-1133 (NSC836407), SN-38 (NSC673596), topotecan (NSC609699), epotoside (NSC141540), doxorubicin (NSC123127), gemcitabine (NSC613327), 5-fluorouracil (NSC19893), paclitaxel (NSC125973), vemurafenib (NSC761431), MSA-2 (NSC828583), SN-011 (NSC837082), adavosertib (NSC754352), prexasertib (NSC758257), carboplatin (NSC241240) and oxaliplatin (NSC266046), were obtained from the National Cancer Institute (NCI) Developmental Therapeutics Program Chemical Repository (21). The FDA-approved anticancer drug set is available from the Developmental Therapeutics Program at https://dtp.cancer.gov/organization/dscb/obtaining/. […] The stock solutions were prepared in dimethyl sulfoxide (DMSO, Sigma-Aldrich, St. Louis, MO, cat. D2650), except for the platinum compounds which were prepared in saline (Quality Biological, Gaithersburg, MD, cat. 114-055-101), at 800-fold the tested concentration and stored at -70 degrees C prior to their use. All drugs and investigational agents were tested over a range starting from a high concentration at or near the clinical Cmax and decreasing in half-log increments. If the clinical Cmax for an agent had not been determined, the highest concentration tested was 10 microM, except for SN-38, which was tested at a high concentration of 1 microM.
Cell Culture. All cells were maintained in an incubator at 37 degrees C and 5% CO2 with 95% humidity. The PDC lines were cultured according to standard operating procedures established by the NCI PDMR (https://pdmr.cancer.gov). Table 3 of the manuscript, lists the cell lines along with the number of the three cell types plated to form the mct-spheroids and media for tumor cell growth. After thawing, all PDC lines, except 997537-175-T-J1-PDC and 415267-285-R-J2-PDC, were cultured in Matrigel-coated flasks prepared with a working solution of 1X Ham's F-12 nutrient mix, without supplementation (Thermo Fisher Scientific, cat. 11765054), 100 U/mL penicillin-streptomycin (Thermo Fisher Scientific, cat. 15140122), and 2.5% Matrigel (Corning Inc., Corning, NY, cat. 354248) for the first three passages. The two PDC lines 997537-175-T-J1-PDC and 415267-285-R-J2-PDC were cultured on uncoated flasks. The 857933-349-R-J2-PDC line was cultured in 6C/Colon 1B media containing advanced DMEM/F-12 (Thermo Fisher Scientific, cat. 12634028), 10 mM HEPES (Thermo Fisher Scientific, cat. 15630080), 1X GlutaMAX supplement (Thermo Fisher Scientific, cat. 35050061), 0.1 mg/mL primocin (InvivoGen, San Diego, CA, cat. ant-pm-2), 10% defined fetal bovine serum, heat inactivated (HyClone Laboratories Inc., Logan, UT, cat. SH30070.03HI), 50% L-WRN conditioned media (ATCC, cat. CRL-3276), 1.25 mM N-Acetyl-L-cysteine (Sigma-Aldrich, cat. A9165), 10 mM nicotinamide (Sigma-Aldrich, cat. N0636), 1X B-27 supplement (Thermo Fisher Scientific, cat. 17504044), 1X N-2 supplement (Thermo Fisher Scientific, cat. […]
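Also: spheroids exposed to the agents for one week.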
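For viability, T/C in this document: 100% = DMSO vehicle control wells.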

Compound `COc1cc(C2c3cc4c(cc3C(OC3OC5COC(C)OC5C(O)C3O)C3COC(=O)C23)OCO4)cc(OC)c1O` (stereo unspecified) + COC1C(OC(N)=O)C(O)C(Oc2ccc3c(O)c(NC(=O)c4ccc(O)c(CC=C(C)C)c4)c(=O)oc3c2C)OC1(C)C has an IC50 (curve of first compound, second compound 0.0316 µM) of 5980 nM, an IC50 (curve of first compound, second compound 0.1 µM) of 7740 nM and an IC50 (curve of first compound, second compound 0.316 µM) of 8380 nM. The IC50 (curve of first compound, second compound 1 µM) was 7000 nM, the IC50 (curve of first compound, second compound 3.16 µM) was 7130 nM and the IC50 (curve of first compound, second compound 10 µM) was 7810 nM. The viability, T/C (second compound 0.0316 µM, first compound 0.0316 µM) was 98%, the viability, T/C (second compound 0.0316 µM, first compound 0.1 µM) was 91% and the viability, T/C (second compound 0.0316 µM, first compound 0.316 µM) was 100%. The viability, T/C (second compound 0.0316 µM, first compound 1 µM) was 98.6%, the viability, T/C (second compound 0.0316 µM, first compound 3.16 µM) was 74.1% and the viability, T/C (second compound 0.0316 µM, first compound 10 µM) was 30.7%. It also gave a viability, T/C (second compound 0.1 µM, first compound 0.0316 µM) of 99.7%, a viability, T/C (second compound 0.1 µM, first compound 0.1 µM) of 89.4% and a viability, T/C (second compound 0.1 µM, first compound 0.316 µM) of 93.9%. For the same compound, the viability, T/C (second compound 0.1 µM, first compound 1 µM) was 88.3%, the viability, T/C (second compound 0.1 µM, first compound 3.16 µM) was 72.9% and the viability, T/C (second compound 0.1 µM, first compound 10 µM) was 43.2%. It also gave a viability, T/C (second compound 0.316 µM, first compound 0.0316 µM) of 107%, a viability, T/C (second compound 0.316 µM, first compound 0.1 µM) of 97.7% and a viability, T/C (second compound 0.316 µM, first compound 0.316 µM) of 106%. The viability, T/C (second compound 0.316 µM, first compound 1 µM) was 90%, the viability, T/C (second compound 0.316 µM, first compound 3.16 µM) was 69.6% and the viability, T/C (second compound 0.316 µM, first compound 10 µM) was 46.4%. For the same compound, the viability, T/C (second compound 1 µM, first compound 0.0316 µM) was 96.2%, the viability, T/C (second compound 1 µM, first compound 0.1 µM) was 93.8% and the viability, T/C (second compound 1 µM, first compound 0.316 µM) was 91.9%. For the same compound, the viability, T/C (second compound 1 µM, first compound 1 µM) was 89.2%, the viability, T/C (second compound 1 µM, first compound 3.16 µM) was 72.9% and the viability, T/C (second compound 1 µM, first compound 10 µM) was 39.5%. For the same compound, the viability, T/C (second compound 3.16 µM, first compound 0.0316 µM) was 99.7%, the viability, T/C (second compound 3.16 µM, first compound 0.1 µM) was 97.7% and the viability, T/C (second compound 3.16 µM, first compound 0.316 µM) was 89.2%. For the same compound, the viability, T/C (second compound 3.16 µM, first compound 1 µM) was 88.6%, the viability, T/C (second compound 3.16 µM, first compound 3.16 µM) was 81.8% and the viability, T/C (second compound 3.16 µM, first compound 10 µM) was 37.1%. It also gave a viability, T/C (second compound 10 µM, first compound 0.0316 µM) of 72.1%, a viability, T/C (second compound 10 µM, first compound 0.1 µM) of 84.5% and a viability, T/C (second compound 10 µM, first compound 0.316 µM) of 89.4%. For the same compound, the viability, T/C (second compound 10 µM, first compound 1 µM) was 76.1%, the viability, T/C (second compound 10 µM, first compound 3.16 µM) was 85.1% and the viability, T/C (second compound 10 µM, first compound 10 µM) was 41.6%.

`COc1cccc(OCCCN)c1-c1cc(Nc2cnc(C#N)cn2)n[nH]1` was tested, and the viability, T/C (compound 0.00316 µM) was 95.3% and 103% (2×), the viability, T/C (compound 0.01 µM) was 89.9% and 104% and 99.4% and the viability, T/C (compound 0.0316 µM) was 72% and 101% and 96.2%. The viability, T/C (compound 0.1 µM) was 80.4% and 102% (2×), the viability, T/C (compound 0.316 µM) was 16.6% and 92.8% and 90.4% and the viability, T/C (compound 1 µM) was 12.3% and 21.8% and 21.6%. For the same compound, the IC50 (curve of compound) was 173 nM and 633 nM and 623 nM.

With `C=CCn1c(=O)c2cnc(Nc3ccc(N4CCN(C)CC4)cc3)nc2n1-c1cccc(C(C)(C)O)n1` the viability, T/C (compound 0.00316 µM) was 99% and 101% and 104%, the viability, T/C (compound 0.01 µM) was 102% and 97.2% and 98.6% and the viability, T/C (compound 0.0316 µM) was 88.2% and 102% and 105%. For the same compound, the viability, T/C (compound 0.1 µM) was 98.6% and 105% and 101%, the viability, T/C (compound 0.316 µM) was 106% and 104% and 103% and the viability, T/C (compound 1 µM) was 86.5% and 104% and 96%. The IC50 (curve of compound) was greater than 1000 nM.

With `CC1COCCN1c1cc(C2(O)CC3CCC(C2)O3)c2cnn(-c3ccn[nH]3)c2n1` (stereo unspecified) the viability, T/C (compound 0.0316 µM) was 91% and 98.1% and 100%, the viability, T/C (compound 0.1 µM) was 90.2% and 88.6% and 96.7% and the viability, T/C (compound 0.316 µM) was 54.3% and 58.2% and 96.7%. The viability, T/C (compound 1 µM) was 25.7% and 28.6% and 63.1%, the viability, T/C (compound 3.16 µM) was 9.69% and 10.5% and 42.5% and the viability, T/C (compound 10 µM) was 10.9% and 8.97% and 19.9%. The IC50 (curve of compound) was 399 nM and 441 nM and 2040 nM.

`CC(=O)O[C@H]1C(=O)[C@@]2(C)[C@H]([C@H](OC(=O)c3ccccc3)[C@]3(O)C[C@H](OC(=O)[C@H](O)[C@@H](NC(=O)c4ccccc4)c4ccccc4)C(C)=C1C3(C)C)[C@]1(OC(C)=O)CO[C@@H]1C[C@@H]2O` was tested, and the viability, T/C (compound 0.00949 µM) was 105% and 103% and 101%, the viability, T/C (compound 0.03 µM) was 99% and 101% and 96.3% and the viability, T/C (compound 0.0949 µM) was 99.6% and 106% and 95.9%. The viability, T/C (compound 0.3 µM) was 105% (2×) and 108%, the viability, T/C (compound 0.949 µM) was 101% and 95.8% and 89.9% and the viability, T/C (compound 3 µM) was 74.1% and 74.5% and 52%. The IC50 (curve of compound) was greater than 3000 nM.

In the case of `COc1cc2cc(C(=O)CCC(=O)O)sc2cc1OC`, the viability, T/C (compound 0.0316 µM) is reported as 106% (2×) and 103%, the viability, T/C (compound 0.1 µM) is reported as 100% and 98.9% and 101% and the viability, T/C (compound 0.316 µM) is reported as 108% and 102% and 98.9%. The viability, T/C (compound 1 µM) was 99.2% and 104% (2×), the viability, T/C (compound 3.16 µM) was 106% and 105% and 116% and the viability, T/C (compound 10 µM) was 85.2% and 83.3% and 64.8%. It also gave an IC50 (curve of compound) greater than 10000 nM.

For `COc1cccc2c1C(=O)c1c(O)c3c(c(O)c1C2=O)CC(O)(C(=O)CO)CC3OC1CC(N)C(O)C(C)O1` (stereo unspecified), the viability, T/C (compound 0.0316 µM) was 95.6% and 102% and 94.8%, the viability, T/C (compound 0.1 µM) was 84.5% and 106% and 91.1% and the viability, T/C (compound 0.316 µM) was 79.2% and 99.9% and 86.9%. The viability, T/C (compound 1 µM) was 49.4% and 91.8% and 61.5%, the viability, T/C (compound 3.16 µM) was 30% and 74.5% and 31.3% and the viability, T/C (compound 10 µM) was 12.6% and 30.7% and 10.1%. The IC50 (curve of compound) was 1120 nM and 6000 nM and 1580 nM.

In the case of `CCc1c2c(nc3ccc(O)cc13)-c1cc3c(c(=O)n1C2)COC(=O)[C@]3(O)CC`, the viability, T/C (compound 0.00316 µM) is reported as 78.9% and 100% and 95.3%, the viability, T/C (compound 0.01 µM) is reported as 51.6% and 79.5% and 29.8% and the viability, T/C (compound 0.0316 µM) is reported as 13% and 39.8% and 14.1%. The viability, T/C (compound 0.1 µM) was 12.4% and 20.3% and 11.5%, the viability, T/C (compound 0.316 µM) was 15.2% and 19.6% and 12.8% and the viability, T/C (compound 1 µM) was 16.6% and 28.6% and 14.5%. The IC50 (curve of compound) was 10.5 nM and 23 nM and 7.03 nM.
